Data as given in US6875608B1, “Propagation and/or derivation of embryonic stem cells” (University of Edinburgh, priority 1998, dated 2005).

T1: GRgp(Y118F) chimeric receptor (UniProt Q00560+Q99062, Y757F)
T1 construct: fusing the extracellular domain of the human G-CSFR to an EcoRI fragment of mouse gp130; an EcoRI fragment of mouse gp130 containing the transmembrane domain and the entire cytoplasmic region; expressed in transfected cells
T1 sequence (Q99062+Q00560 with tags, fused parts or gaps Q00560:Y757F): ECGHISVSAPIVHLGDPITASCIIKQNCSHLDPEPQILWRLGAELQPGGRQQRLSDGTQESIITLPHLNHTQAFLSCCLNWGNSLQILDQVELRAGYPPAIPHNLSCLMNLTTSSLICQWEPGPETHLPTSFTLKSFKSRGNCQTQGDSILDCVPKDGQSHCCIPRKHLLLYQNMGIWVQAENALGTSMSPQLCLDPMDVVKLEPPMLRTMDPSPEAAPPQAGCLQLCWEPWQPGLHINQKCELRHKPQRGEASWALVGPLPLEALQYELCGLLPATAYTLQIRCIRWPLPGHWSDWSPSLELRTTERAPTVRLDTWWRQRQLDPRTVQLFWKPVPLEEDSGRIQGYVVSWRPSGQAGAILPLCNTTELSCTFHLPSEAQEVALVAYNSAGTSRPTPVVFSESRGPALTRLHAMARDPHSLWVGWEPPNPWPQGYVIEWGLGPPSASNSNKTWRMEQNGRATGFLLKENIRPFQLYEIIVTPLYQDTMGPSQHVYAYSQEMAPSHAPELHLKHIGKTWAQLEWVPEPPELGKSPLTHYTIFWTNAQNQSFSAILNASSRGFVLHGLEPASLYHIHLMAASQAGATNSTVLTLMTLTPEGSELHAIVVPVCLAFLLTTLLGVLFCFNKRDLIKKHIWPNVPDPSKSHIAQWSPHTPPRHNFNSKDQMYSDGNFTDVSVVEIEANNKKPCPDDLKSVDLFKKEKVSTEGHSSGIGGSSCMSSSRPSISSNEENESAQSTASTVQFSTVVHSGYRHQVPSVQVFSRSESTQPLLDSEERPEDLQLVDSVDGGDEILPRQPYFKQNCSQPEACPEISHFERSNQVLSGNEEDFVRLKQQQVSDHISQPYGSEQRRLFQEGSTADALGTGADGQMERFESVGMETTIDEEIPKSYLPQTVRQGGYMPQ

B1: G-CSF: cytokine ligand used to stimulate chimaeric G-CSFR/gp130 receptors in ES cell transfectants (protein, UniProt P09919 31-207, looked up)
Granulocyte …: TPLGPASSLPQSFLLKCLEQVRKIQGDGAALQEKLVSECATYKLCHPEELVLLGHSLGIPWAPLSSCPSQALQLAGCLSQLHSGLFLYQGLLQALEGISPELGPTLDTLQLDVADFATTIWQQMEELGMAPALQPTQGAMPAFASAFQRRAGGVLVASHLQSFLEVSYRVLRHLAQP

Legend:
ERK1 and ERK2 = assay: PD098059 dependent inhibition of ERK activation (immunoblot with phosphospecific anti-ERK antibodies); format: cell-based, mouse; conditions: GRgp(278) cells, 48 hours inhibitor plus LIF, then G-CSF 30 ng/ml 10 minutes
Procedure: For analysis of STAT3 and ERK phosphorylation, 1×10^6 ES cells were plated per well of 6-well dishes. Cells were serum starved and treated with cytokines as described above and then lysed in 100 μl SDS sample buffer. Ten microlitre aliquots were fractionated on a 10% SDS polyacrylamide gel, electroblotted onto nitrocellulose and probed with anti-ERK and anti-STAT3 antibodies according to the directions provided by supplier (New England Biolabs).
The continued proliferation of undifferentiated ES cells at inhibitory concentrations of PD098059 confirms that gp130-dependent activation of ERK1 and ERK2 is not required for the propagation of ES cells.

ZIN40 ES cells = assay: Chimaera analysis of ES cell pluripotency; format: in vivo; conditions: 48 hours LIF plus 25 μM PD098059, 24 hours LIF only, injected into mouse blastocysts, day 9.5
Procedure: ZIN40 ES cells were treated wit 25 μM PD098059 plus 5 U/ml LIF for 48 hours, re-fed with medium containing LIF for a further 24 hours and than microinjected into C57BL/6 blastcysts. Embryos were collected at day 9.5 of pregnancy and stained for β-galactosidase activity.
ZIN40 ES cells were injected into C57BL/6 blastocysts and transferred into pseudopregnant mice. Mice were sacrificed at day 9.5 of pregnancy and the embryos were stained with X-gal.
We therefore determined whether ES cells propagated in the absence of gp130-dependent ERK. signaling have the capacity to incorporate into the developing embryo and differentiate appropriately. Cells were cultured at low density (1000 cell/cm^2) for 48 hours in the presence of LIF plus 25 μM PD098059, or in the absence of LIF. They were then re-fed with medium containing LIF but lacking the inhibitor for a further 24 hours before microinjection into mouse blastocysts. ZIN40 cells were used in this experiment, since they carry a nuclear localised β-galactosidase marker that is widely expressed in differentiated cell types. […] However, cells cultured in the absence of LIF for 48 hours were incapable of colonizing the embryo.

IOUD2 ES cells = assay: Aggregate (embryoid body) culture, staining for Oct4 β-galactosidase; format: cell-based, mouse
Text: Aggregation induces ES cells to differentiate and form structures known as embryoid bodies that contain multiple differentiated cell types. Undifferentiated cells are largely or wholly eliminated during embryoid formation due to induced differentiation and/or apoptosis.
IOUD2 ES cells, which carry a targeted integration of βgeo into the Oct4 locus were used to enable visualisation of undifferentiated cells by histochemical staining for β-galactosidase. Aggregates were formed in hanging drops by seeding 100 cells/20 μl drop in the presence of 0, 25, 50, 75 or 100 μm PD089059. Aggregates were maintained for 6 days, then transferred to gelatin-coated dishes and allowed to attach overnight. Cultures were then fixed and stained for β-galactosidase activity. In the absence of the Mek inhibitor, the embryoid bodies were well differentiated and very few Oct4 β-galactosidase expressing cells were present in the outgrowths. […] At PD089059 concentrations of 75-100 μm, the great majority of cells were undifferentiated.

[1] = target: T2, GRgp(278) chimeric receptor (UniProt Q00560+Q99062); assay: Self-renewal response of GRgp130 transfectants to G-CSF; format: cell-based; conditions: GRgp(278) transfectants, 6 days, 300 fg-30 ng/ml G-CSF
T2 construct: fusing the extracellular domain of the human G-CSFR to an EcoRI fragment of mouse gp130; an EcoRI fragment of mouse gp130 containing the transmembrane domain and the entire cytoplasmic region; expressed in transfected cells
Procedure: (§1) Photomicrographs were taken of X-gal stained, representive colonies formed by GRgp(278) and GRgp(Y118F) transfectants after 6 days culture with 300 fg, 30 pg and 30 ng/ml of G-CSF. Photomicrographs were also taken of representative colonies formed by GRgp(278) and GRgp(Y118F) transfectants after 6 days culture with no cytokine, IL-6 (100 ng/ml+sIL-6R), G-CSF(30 ng/ml) or, IL-6(100 ng/ml+sIL-6R) and G-CSF(30 ng/ml).
(§2) All assays were performed in triplicate.

[2] = target: T1, GRgp(Y118F) chimeric receptor; assay: as above; format: cell-based; conditions: GRgp(Y118F) ES cells, 6 days, 300 fg-30 ng/ml G-CSF
Procedure: as §1, §2

T2 sequence (Q00560 640-917 limits assumed, change not shown, one chain of several): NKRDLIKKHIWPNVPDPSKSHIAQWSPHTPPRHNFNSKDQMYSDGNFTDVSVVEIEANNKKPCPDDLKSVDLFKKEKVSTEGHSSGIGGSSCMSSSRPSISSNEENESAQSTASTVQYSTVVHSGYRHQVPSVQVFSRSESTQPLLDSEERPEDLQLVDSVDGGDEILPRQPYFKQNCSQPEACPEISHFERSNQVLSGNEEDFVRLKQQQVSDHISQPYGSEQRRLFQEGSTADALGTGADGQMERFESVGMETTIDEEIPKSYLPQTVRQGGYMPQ
Procedure for D027 ES cells: Data were collected as means±s.e.m for duplicate determinations of triplicate samples normalized relative to the response to LIF. […] Data was collected as means±s.e.m for duplicate determinations of triplicate samples normalized relative to the maximum response of cells to treatment with LIF(111 U/ml) plus vehicle.
Expression of β-galactosidase from the Oct-4 locus in D027 cells was quantitated in an ONPG assay. Cells were plated at 5000 per well in a 24-well dishes and cultured for 6 days in the presence or absence of cytokine. When cells were treated with PD098059, they were plated at 2500 per well and cultured overnight in normal growth medium prior to addition of the inhibitor. On day 6, cells were washed once with PBS and lysed in 0.4 ml of 0.25 M Tris pH 7.5, 0.5 mM DTT, 0.5 % NP40. Lysate (40 μl) was mixed with 100 μl of ONPG buffer (60 mM Na2HPO4, 40 mM NaH2PO4, 10 mM KCl, 1 mM MgCl2, 50 mM 2-mercaptoethanol, 1.2 mM ONPG) in a microtitre plate, incubated at 37° C. for 2-4 hours and the absorbance was read at 420 nm. All assays were performed in triplicate.
D027 cells have a LacZ gene inserted within the stem cell specific gene, Oct-4. As a consequence, expression of this integrated reporter gene is restricted to undifferentiated ES cells and the resulting β-galactosidase activity provides a measure of stem cell self-renewal.
To test this hypothesis, D027 cells were cultured in the presence of the specific MEK inhibitor, PD098059. A sub-saturating concentration of LIF (5 U/ml) was used in these experiments to increase these sensitivity of the assay to changes in self-renewal signaling.
Self-renewal ES cells was assayed flowing treatment with 0.1-100 U/ml LIF either in the presence of 25 μM PD098059 or vehicle (02% DMSO).

Row | G-CSF concentration at which self-renewal reaches a plateau [1] | G-CSF concentration at which maximal self-renewal response was achieved [2] | Molecule | concentration at which G-CSF dependent phosphorylation of ERK1 and ERK2 was effectively blocked (ERK1 and ERK2) | concentration range over which G-CSF dependent phosphorylation of ERK1 and ERK2 was progressively reduced (ERK1 and ERK2) | contribution of treated ES cells to chimaeras (β-galactosidase staining of mid-gestation embryos) (ZIN40 ES cells) | representation of undifferentiated β-galactosidase positive cells (IOUD2 ES cells; 0, 25, 50, 75 or 100 μm, aggregates 6 days, no inhibitor as control) | concentration at which the great majority of cells were undifferentiated (IOUD2 ES cells; aggregates maintained 6 days) | effect on dose response of ES cells to LIF (β-galactosidase activity) (D027 ES cells; 25 μM PD098059 versus vehicle, 0.1-100 U/ml LIF) | effect on ES cell self-renewal compared with vehicle alone (D027 ES cells; 3-25 μM PD098059, sub-saturating LIF (5 U/ml)) | effect on differentiation of ES cells in the absence of LIF (D027 ES cells; absence of LIF) | concentration at which maximum level of self-renewal is achieved (D027 ES cells; sub-saturating LIF (5 U/ml), dose dependent increase)
1 |  |  | COc1cccc(-c2cc(=O)c3ccccc3o2)c1N [PD098059] | 25 µM | 3 to 12 µM | contributed to chimaeras | increased in a dose dependent fashion | 75 to 100 µM | increased the level of β-galactosidase activity at all concentrations of LIF | did not inhibit self-renewal | did not block the differentiation of ES cells | 12 to 25 µM
2 | 3 to 30 ng/mL | 30 pg/mL | B1 |  |  |  |  |  |  |  |  | 
